These results are taken from patent US20070172509A1, “Drug Delivery System for Retarding Release of Water Soluble Drugs” (Conor Medsystems, Inc., priority 2006, published 2007).

Each structure is given as a SMILES string. Values after ≈ are worked out from the molar mass of the structure shown.

Data set [1] can be described thus: Film morphology of agent in PLGA 85/15 film cast from anisole. The arrangement: key: A—Amorphous; D—Dispersion; C—Crystalline. The data set is classed as physicochemical.
The conditions of data set [2]: cited from earlier work.
Setting [3] is: 5% agent in PLGA 85/15 film cast from anisole.
[4] abbreviates: 10% agent in PLGA 85/15 film cast from anisole.
Where [5] appears, read: 25% agent in PLGA 85/15 film cast from anisole.
[6] abbreviates: 50% agent in PLGA 85/15 film cast from anisole.
Setting [7] is: 75% agent in PLGA 85/15 film cast from anisole.
Where [8] appears, read: 90% agent in PLGA 85/15 film cast from anisole.

Take `Cc1cc(C(C)(C)C)c(O)c(C(C)(C)C)c1` [BHT, butylated hydroxy toluene]: the “Film Morphology” value in data set [1] (setting [3]) is “A”; in data set [1] (setting [4]), “A”; in data set [1] (setting [5]), “A”; in data set [1] (setting [6]) it was “D”; in data set [1] (setting [7]) it was “Mixed”; in data set [1] (setting [8]), “C”.
Consider `O=C(OCc1ccccc1)c1ccccc1` [Benzyl Benzoate], for which the “Film Morphology” value in data set [1] (setting [3]) and in data set [1] (setting [4]) was “A” in each case.
With `CCCCOC(=O)c1ccc(O)cc1` [Butyl 4-Hydroxybenzoate], the “Film Morphology” value in data set [1] (setting [3]) is “A”; in data set [1] (setting [4]), “A”; in data set [1] (setting [5]), “A”; in data set [1] (setting [6]), “C”; in data set [1] (setting [7]), “C”; in data set [1] (setting [8]), “C”.
Consider `CC[C@@H]1/C=C(\C)C[C@H](C)C[C@H](OC)[C@H]2O[C@@](O)(C(=O)C(=O)N3CCCC[C@H]3C(=O)O[C@H](/C(C)=C/[C@@H]3CC[C@H](Cl)[C@H](OC)C3)[C@H](C)[C@@H](O)CC1=O)[C@H](C)C[C@@H]2OC` [Pimecrolimus, reference compound], for which the “Film Morphology” value is reported as “A” in data set [1] (setting [4]), “Mixed” in data set [1] (setting [5]) and “C” in data set [1] (setting [6]).
Consider `CCCOC(=O)c1ccc(O)cc1` [Propyl 4-hydroxybenzoate], for which the “Film Morphology” value in data set [1] (setting [3]) was “A”; in data set [1] (setting [4]), “A”; in data set [1] (setting [5]), “Mixed”; in data set [1] (setting [6]) it was “C”; in data set [1] (setting [7]) it was “C”; in data set [1] (setting [8]) it was “C”.
For the compound `Nc1nc(Cl)nc2c1ncn2[C@H]1C[C@H](O)[C@@H](CO)O1` [cladribine], the water solubility in data set [2] is 200 µg/mL (≈ 700 µM).
